# Results reported in publication PMC7883873, “Discovery of New Catalytic Topoisomerase II Inhibitors for Anticancer Therapeutics” (Frontiers in Oncology, 2021).
# B1: 5ZRF (dsDNA)
# DNA 1: AGCCGAGCTGCAGCTCGGCT
# DNA 2: AGCCGAGCTGCAGCTCGGCT
# Key:
# TOP2A [1] = biological target: T1, TOP2A (Homo sapiens, UniProt P11388); test: Relaxation and K-DNA decatenation assays of candidates and T60 derivatives (SAR); type: biochemical; design: full-length human TOP2A and TOP2B protein (TopoGEN and Inspiralis respectively); purchased TopoGEN TG1001 (human TOP2 assay kit); settings: compared with T60
# Protocol: (§1) The human TOP2 assay kit (#TG1001, TopoGEN, Buena Vista, CO) and TOP2B (HTB205, Inspiralis, UK) were used for K-DNA decatenation assays. […] The reaction was incubated at 37C for 2 h after which 4 µl stop solution (5× buffer is 5% Sarkosyl, 0.125% bromophenol blue, 25% glycerol) was added. The reaction was resolved by electrophoresis on a 0.8% agarose gel at 60 V and stained with 0.5 µg/ml ethidium bromide for 15 min. DNA bands were visualized using a gel imager (Gel Doc™ EZ System) and quantified using the Image Studio™ Lite Quantification Software.
# (§2) The human TOP2A and TOP2B were used to perform DNA relaxation assays. […] The reaction was incubated at 37C for 2 h and stopped by adding 2 µl of 10% SDS and 1 µl of 250 mM of EDTA, followed by the addition of 50 µg/ml of proteinase K at 45 C for 1 h. The reaction was then resolved by electrophoresis on a 1% agarose gel at 80 V and stained with 0.5 µg/ml ethidium bromide for 15 min. DNA bands were visualized using a gel imager (Gel Doc™ EZ System) and quantified using the Image Studio™ Lite Quantification Software.
# TOP2A (431–1193) = biological target: T2, TOP2A (431–1193) (Homo sapiens, UniProt P11388); test: Bio-Layer Interferometry (BLI) assay; type: binding
# T2 construct: was incorporated with TOP2A (431–1193); made in house; host or cells: Escherichia coli BL21 co-expressing biotin ligase
# Protocol: BLI assays were performed as we previously reported ([33]). The direct and reversible interactions between small molecules and TOP2 protein were quantified by BLI using OctetRED (ForteBio, Bohemia, NY). Human TOP2A (431–1,193) was produced in situ with AviTag technology. The AviTag sequence ([…]) followed by a six-residue glycine serine linker (GSGSGS) was incorporated with TOP2A (431–1193). Escherichia coli BL21 containing both biotin ligase and TOP2A (431–1193) vectors were induced with 0.5 mM isopropyl-β-D-thiogalactopyranoside (IPTG) and biotin at 16C overnight. The bacteria were then lysed by sonication, and the resulting lysate was purified by immobilized metal ion affinity chromatography (IMAC) with nickel nitrilotriacetic acid (NiNTA) resin and cation-exchange chromatography (HiTrap SP). Purified TOP2A (431–1193) (50 μg/ml) was bound to the super-streptavidin sensors over 50 min at room temperature. The sensor was kept in an assay buffer [20 mM N-2-hydroxyethylpiperazine-N0 -2-ethanesulfonic acid (HEPES), 150 mM NaCl, 500 μM tris(2-carboxyethyl) phosphine (TCEP), and 1% dimethylsulfoxide (DMSO)], when small molecules were added. After 200 s, a wash buffer was used to flush the sensor plate for 100 s. BLI signal was recorded throughout the 300 s following the manufacture’s instruction from OctetRED (ForteBio, Bohemia, NY).
# K562 xenografts = test: K562 xenografts, intra-tumor polymeric paste; type: in vivo, nude mice (Nu/Nu); settings: single 30 µl paste, 1% T60 or T633, 0.3% etoposide
# Protocol: The polymeric paste was prepared with 50% poly-DL-lactide-coglycolide (PLGA) and 50% PEG 300 (w/w) as we have reported ([57]). […] The density of the paste was determined to be 1.2 g/ml ( ± 3%). One million K562 cells were inoculated subcutaneously in bilateral flanks of nude mice (Nu/Nu). […] Tumor volumes were measured every three days and were calculated by length × width × depth × 0.5236. Mice were euthanized when tumor volumes reached 15% of body weight or weight loss >20% occurred. The remaining mice were euthanized after the control group was euthanized. All animal procedures were under the guidelines of the Canadian Council on Animal Care and were approved by the UBC Animal Care Committee (# A19-0256).
# TOP2B = TOP2B (Homo sapiens, UniProt Q02880); test: DNA cleavage assay; type: biochemical; design: full-length human TOP2A and TOP2B protein (TopoGEN and Inspiralis respectively); purchased Inspiralis HTB205; settings: 200 µM, buffer without ATP
# Protocol: (§3) The reactions were incubated in 37C for 30 min and stopped by adding 2 µl of 10% SDS and 1 µl of 250 mM of EDTA, followed by the addition of 50 µg/ml of proteinase K at 45C for 30 min. The reaction was then resolved by electrophoresis on a 1% agarose gel containing […] ethidium bromide in TAE buffer at 60 V. DNA bands were visualized using a gel imager (Gel Doc™ EZ System) and quantified by using the Image Studio™ Lite Quantification Software.
# TOP2A [2] = biological target: T1, TOP2A; test: DNA cleavage assay; type: biochemical; design: full-length human TOP2A and TOP2B protein (TopoGEN and Inspiralis respectively); purchased TopoGEN TG1001 (human TOP2 assay kit); settings: 200 µM, buffer without ATP
# Protocol: as §3
# salmon sperm DNA = test: Ethidium bromide displacement assay; type: binding; settings: increasing doses; 100 µg/ml DNA, 2 µg/ml ethidium bromide
# Protocol: Ethidium bromide displacement assay was performed as previously described ([49], [50]) using Amsacrine (mAMSA) as a positive control. In a 20 µl reaction, compounds were mixed with 100 µg/ml of salmon sperm DNA and 2 µg/ml of ethidium bromide in a fluorescence buffer containing 10 mM HEPES, pH 7.9, 100 mM KCl, 5 mM MgCl2, 0.1 mM EDTA, pH 8.0. Triplicate reactions were subjected to fluorescence emission of 590 nm and excitation of 535 nm. Signals were detected by using the Multimode Microplate Reader, Infinite® F500.
# TOP2A [3] = biological target: T1, TOP2A; test: K-DNA decatenation assay; type: biochemical; design: full-length human TOP2A and TOP2B protein (TopoGEN and Inspiralis respectively); purchased TopoGEN TG1001 (human TOP2 assay kit); settings: Figure 3A
# Protocol: as §1
# TOP2A [4] = biological target: T1, TOP2A; test: DNA relaxation assay (supercoiled pHOT-1 plasmid); type: biochemical; design: full-length human TOP2A and TOP2B protein (TopoGEN and Inspiralis respectively); purchased TopoGEN TG1001 (human TOP2 assay kit); settings: Figure 3B
# Protocol: as §2
# TOP2A full-length = TOP2A full-length (Homo sapiens, UniProt P11388 1-1531); test: EMSA; 2 uM protein, 300 nM DNA, 3 mM Mg2+, no inhibitor; 20 mM HEPES-NaOH pH 7.4, 2 mM DTT, 3 mM MgCl2, 0.05% NP-40, protease inhibitors, 0.1 ug poly[dI:dC] in 20 ul, 30 min at 37 C; 4% native gel in 0.5x TBE; settings: protein: commercial; label: IRDye700; blunt; self-complementary strand, 2 copies
# TOP2B full-length = TOP2B full-length (Homo sapiens, UniProt Q02880 1-1626); test: as above; settings: protein: commercial; label: IRDye700; blunt; self-complementary strand, 2 copies
# TOP2A (431-1193) = TOP2A (431-1193) (Homo sapiens, UniProt P11388 431-1193); test: EMSA; 30 uM protein, 300 nM DNA, 3 mM Mg2+, no inhibitor; 20 mM HEPES-NaOH pH 7.4, 2 mM DTT, 3 mM MgCl2, 0.05% NP-40, protease inhibitors, 0.1 ug poly[dI:dC] in 20 ul, 30 min at 37 C; 4% native gel in 0.5x TBE; settings: protein: recombinant; (NiNTA purified); label: IRDye700; blunt; self-complementary strand, 2 copies
# Chain of TOP2A (431-1193) (P11388 431-1193): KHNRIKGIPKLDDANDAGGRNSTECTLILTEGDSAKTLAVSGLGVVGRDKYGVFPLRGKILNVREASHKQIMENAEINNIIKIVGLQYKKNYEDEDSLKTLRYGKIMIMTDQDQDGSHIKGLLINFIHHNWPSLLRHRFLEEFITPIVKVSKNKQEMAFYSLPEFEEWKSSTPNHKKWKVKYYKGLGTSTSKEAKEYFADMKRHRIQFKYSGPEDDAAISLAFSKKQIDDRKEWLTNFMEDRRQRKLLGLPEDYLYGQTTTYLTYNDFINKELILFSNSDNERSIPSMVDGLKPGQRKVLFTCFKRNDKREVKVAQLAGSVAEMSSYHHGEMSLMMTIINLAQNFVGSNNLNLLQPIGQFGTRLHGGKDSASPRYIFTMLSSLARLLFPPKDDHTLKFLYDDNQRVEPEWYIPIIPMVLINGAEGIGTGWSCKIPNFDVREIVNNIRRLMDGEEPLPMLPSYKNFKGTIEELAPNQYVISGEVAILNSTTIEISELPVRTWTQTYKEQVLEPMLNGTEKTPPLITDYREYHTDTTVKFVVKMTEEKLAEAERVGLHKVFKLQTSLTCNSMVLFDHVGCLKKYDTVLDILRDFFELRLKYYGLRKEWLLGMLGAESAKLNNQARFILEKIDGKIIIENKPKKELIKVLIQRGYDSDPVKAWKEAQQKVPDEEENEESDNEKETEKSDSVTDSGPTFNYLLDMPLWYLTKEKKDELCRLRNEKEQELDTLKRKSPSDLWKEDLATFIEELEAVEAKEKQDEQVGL
# T2 sequence (P11388 431-1193): as above
# T1 sequence (P11388 whole entry): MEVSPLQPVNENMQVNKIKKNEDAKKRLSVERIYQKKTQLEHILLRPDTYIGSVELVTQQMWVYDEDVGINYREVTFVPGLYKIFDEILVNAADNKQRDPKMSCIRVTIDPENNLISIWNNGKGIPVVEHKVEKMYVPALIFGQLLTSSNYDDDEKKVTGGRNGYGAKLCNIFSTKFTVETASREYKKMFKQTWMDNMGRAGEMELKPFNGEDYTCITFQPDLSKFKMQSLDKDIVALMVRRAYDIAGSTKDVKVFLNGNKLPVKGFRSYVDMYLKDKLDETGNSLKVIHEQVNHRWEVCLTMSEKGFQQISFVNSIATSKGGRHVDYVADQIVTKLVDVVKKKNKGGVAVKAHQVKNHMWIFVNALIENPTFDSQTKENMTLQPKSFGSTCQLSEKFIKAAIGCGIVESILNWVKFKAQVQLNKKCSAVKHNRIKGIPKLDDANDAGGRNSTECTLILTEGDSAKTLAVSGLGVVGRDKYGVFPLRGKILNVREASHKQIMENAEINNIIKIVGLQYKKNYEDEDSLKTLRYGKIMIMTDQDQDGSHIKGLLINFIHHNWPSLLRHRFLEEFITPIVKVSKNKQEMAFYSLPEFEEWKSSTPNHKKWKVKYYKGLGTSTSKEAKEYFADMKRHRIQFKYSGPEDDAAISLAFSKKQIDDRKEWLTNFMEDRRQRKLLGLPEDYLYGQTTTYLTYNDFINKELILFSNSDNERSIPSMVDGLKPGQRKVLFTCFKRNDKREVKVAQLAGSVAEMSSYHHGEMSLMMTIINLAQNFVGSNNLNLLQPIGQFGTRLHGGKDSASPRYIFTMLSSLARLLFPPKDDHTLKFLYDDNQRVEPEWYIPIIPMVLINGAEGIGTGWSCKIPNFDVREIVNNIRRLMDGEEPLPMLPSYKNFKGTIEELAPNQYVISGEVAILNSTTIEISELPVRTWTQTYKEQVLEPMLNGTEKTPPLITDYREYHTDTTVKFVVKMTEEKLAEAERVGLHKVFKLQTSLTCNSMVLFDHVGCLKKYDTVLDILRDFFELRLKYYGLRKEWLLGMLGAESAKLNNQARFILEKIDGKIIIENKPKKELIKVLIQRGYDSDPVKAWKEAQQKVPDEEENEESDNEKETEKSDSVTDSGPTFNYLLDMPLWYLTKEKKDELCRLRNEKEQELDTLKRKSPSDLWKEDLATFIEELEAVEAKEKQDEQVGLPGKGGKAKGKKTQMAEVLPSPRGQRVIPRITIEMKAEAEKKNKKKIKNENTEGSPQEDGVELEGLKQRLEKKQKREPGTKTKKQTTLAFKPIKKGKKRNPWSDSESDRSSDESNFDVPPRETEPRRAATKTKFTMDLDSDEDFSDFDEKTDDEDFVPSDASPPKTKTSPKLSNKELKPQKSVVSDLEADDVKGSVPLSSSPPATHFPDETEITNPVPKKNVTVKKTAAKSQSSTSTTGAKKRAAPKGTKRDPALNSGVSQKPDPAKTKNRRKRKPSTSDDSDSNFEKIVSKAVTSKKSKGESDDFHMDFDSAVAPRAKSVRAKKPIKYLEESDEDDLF
# Chain of TOP2B (Q02880 whole entry): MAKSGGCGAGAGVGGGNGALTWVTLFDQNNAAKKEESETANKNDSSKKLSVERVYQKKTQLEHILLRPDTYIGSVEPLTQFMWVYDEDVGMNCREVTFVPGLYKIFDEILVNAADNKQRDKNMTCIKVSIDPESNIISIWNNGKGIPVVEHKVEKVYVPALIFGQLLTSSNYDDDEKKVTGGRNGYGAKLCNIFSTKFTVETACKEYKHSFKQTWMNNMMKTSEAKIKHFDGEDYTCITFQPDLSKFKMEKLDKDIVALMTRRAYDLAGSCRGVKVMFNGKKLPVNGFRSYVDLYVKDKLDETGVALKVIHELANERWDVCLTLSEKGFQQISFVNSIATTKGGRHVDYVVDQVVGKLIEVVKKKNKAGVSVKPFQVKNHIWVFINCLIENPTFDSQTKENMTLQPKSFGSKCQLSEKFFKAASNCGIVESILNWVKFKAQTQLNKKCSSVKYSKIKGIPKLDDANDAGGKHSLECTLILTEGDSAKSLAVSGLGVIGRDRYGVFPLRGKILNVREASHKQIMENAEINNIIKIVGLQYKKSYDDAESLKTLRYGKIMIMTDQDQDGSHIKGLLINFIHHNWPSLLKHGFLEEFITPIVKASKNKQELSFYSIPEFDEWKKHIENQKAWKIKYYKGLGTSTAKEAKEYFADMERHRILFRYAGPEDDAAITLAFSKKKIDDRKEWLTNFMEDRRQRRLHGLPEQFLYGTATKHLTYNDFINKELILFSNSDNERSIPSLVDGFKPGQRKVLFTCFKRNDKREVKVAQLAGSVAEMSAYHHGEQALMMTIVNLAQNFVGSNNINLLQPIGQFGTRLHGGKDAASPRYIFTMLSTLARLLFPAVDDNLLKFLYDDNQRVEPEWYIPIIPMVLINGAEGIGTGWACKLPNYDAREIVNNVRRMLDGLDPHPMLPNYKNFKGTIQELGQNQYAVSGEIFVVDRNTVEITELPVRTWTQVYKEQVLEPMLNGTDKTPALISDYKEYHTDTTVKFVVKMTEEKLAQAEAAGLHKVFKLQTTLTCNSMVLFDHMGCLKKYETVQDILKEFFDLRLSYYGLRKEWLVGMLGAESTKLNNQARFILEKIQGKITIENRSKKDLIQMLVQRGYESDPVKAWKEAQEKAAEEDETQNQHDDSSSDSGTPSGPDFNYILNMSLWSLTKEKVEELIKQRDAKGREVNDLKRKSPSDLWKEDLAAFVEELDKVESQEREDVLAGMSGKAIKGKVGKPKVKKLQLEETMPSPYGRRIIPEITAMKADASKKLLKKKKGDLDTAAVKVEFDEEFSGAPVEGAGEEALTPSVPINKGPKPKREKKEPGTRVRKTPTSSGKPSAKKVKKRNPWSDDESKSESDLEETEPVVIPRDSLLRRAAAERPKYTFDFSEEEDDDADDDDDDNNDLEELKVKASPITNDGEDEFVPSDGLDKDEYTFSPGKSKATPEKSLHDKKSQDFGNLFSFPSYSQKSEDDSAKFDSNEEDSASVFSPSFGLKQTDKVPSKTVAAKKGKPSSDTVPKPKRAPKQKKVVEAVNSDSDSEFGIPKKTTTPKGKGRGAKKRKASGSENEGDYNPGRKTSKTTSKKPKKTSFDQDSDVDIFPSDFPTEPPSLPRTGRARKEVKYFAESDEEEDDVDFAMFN
# Chain of TOP2B full-length (Q02880 whole entry): as above
# Chain of TOP2A full-length (P11388 whole entry): as the sequence (P11388 whole entry) above
molecule,measurement,setting,value
O=C(Nc1ccc(Nc2ccccc2O)cc1)c1ccc[nH]c1=S [T620],Activity on TOP2,TOP2A [1],increased activity
Cc1cc(Nc2ccccc2)ccc1NC(=O)c1ccc[nH]c1=S [T633],"Hill slope, BLI",TOP2A (431–1193); dose-response 0-50 μM,5±1.5
same,Kd,"TOP2A (431–1193); dose-response 0-50 μM, estimated",35 ± 3 µM
same,"Binding to TOP2A (431–1193), BLI curves",TOP2A (431–1193); increasing concentrations,reversible and dose-response binding
same,Activity on TOP2,TOP2A [1],stronger activities than T60
same,Tumor growth at the end of two weeks,K562 xenografts,strongly inhibit tumor growth comparable to etoposide
Cc1cc(NC(=O)c2ccc[nH]c2=S)ccc1Nc1ccccc1 [T630],Activity on TOP2,TOP2A [1],stronger activities than T60
O=C(Nc1ccc(Nc2ccc(O)cc2)cc1)c1ccc[nH]c1=S [T625],Activity on TOP2,TOP2A [1],increased activity
O=C(Nc1ccc(Nc2ccccc2)cc1)c1c[nH]cnc1=S [T636],Activity on TOP2,TOP2A [1],nearly inactive
O=C(Nc1ccc(Nc2ccccc2)cc1)c1ccnnc1S [T635],Activity on TOP2,TOP2A [1],nearly inactive
COc1cc([C@@H]2c3cc4c(cc3[C@@H](O[C@@H]3O[C@@H]5CO[C@@H](C)O[C@H]5[C@H](O)[C@H]3O)[C@H]3COC(=O)[C@H]23)OCO4)cc(OC)c1O [etoposide],Induction of linear plasmid (DNA cleavage) with TOP2B,TOP2B,induced detectable linear plasmid
same,Induction of linear plasmid (DNA cleavage) with TOP2A,TOP2A [2],induced detectable linear plasmid
same,Tumor volumes versus vehicle group at the end of four weeks,K562 xenografts,statistically lower than the vehicle group
"COc1cc(NS(C)(=O)=O)ccc1Nc1c2ccccc2nc2ccccc12 [m-AMSA, Amsacrine, reference compound]",Fluorescence of ethidium bromide/DNA complex (DNA intercalation),salmon sperm DNA,reduced
O=C(Nc1ccc(Nc2ccccc2)cc1)c1ccccc1S [T609],Activity on TOP2,TOP2A [1],most active compound
CN(C(=O)c1ccc[nH]c1=S)c1ccc(Nc2ccccc2)cc1 [T627],Activity on TOP2,TOP2A [1],complete abolishment of T60 activity
ICRF193 [reference compound],Inhibition of TOP2A mediated K-DNA decatenation,TOP2A [3],inhibited
same,Inhibition of TOP2A activity changing supercoiled into relaxed plasmid DNA,TOP2A [4],inhibited
O=C(Nc1ccc(Nc2ccccc2)cc1O)c1ccc[nH]c1=S [T634],Activity on TOP2,TOP2A [1],stronger activities than T60
B1,binding result,TOP2A full-length,binds
same,binding result,TOP2B full-length,binds
same,binding result,TOP2A (431-1193),binds
